The supplement of paper PMC4862054

test system: MCF-10A; assay: normalised response (% of control), CellTiter-Glo; higher = more viable cells (100 = DMSO, 0 = benzethonium chloride kill control); conditions: incubation time: 72 h
Method in brief: (§1)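 Two readouts were taken after 72 h: CellTox Green fluorescence (485/520 nm) first, then CellTiter-Glo luminescence after 10 min at room temperature. Breast cancer cell lines had been seeded as 20 µl suspension into 384-well plates holding compound at 5 concentrations in 10-fold steps across a compound-specific 10,000-fold range. Each value is a normalised signal at a single concentration, with plates scaled to 0.1 % DMSO (100) and a positive kill control (0).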

`CC(C)n1cnc2c(NCCc3ccc(O)cc3)nc(-c3csc4ccccc34)nc21` [StemRegenin 1] (10 nM) gave a normalised response of 105%.

test system: BT-549; assay: as above; conditions: incubation time: 72 h
Method in brief: as §1

Point of comparison: `CN[C@@H](C)C(=O)N[C@H]1CN(C(=O)CC(C)C)CC[C@H]2CC[C@@H](C(=O)NC(c3ccccc3)c3ccccc3)N2C1=O` [AT-406] (1000 nM), normalised response 59.7%. Against it:
- CC1(COc2ccc3c(c2)ncn3-c2ccc3cccc(N4CCC(N)CC4)c3n2)COC1 [Crenolanib] (1000 nM) — higher, 82.5%
- CC(C)(C)c1nc(-c2cccc(NS(=O)(=O)c3c(F)cccc3F)c2F)c(-c2ccnc(N)n2)s1 [Dabrafenib] (250 nM) — higher, 91%
- Cc1nc(C(=O)NCC(=O)O)c(O)c2ccc(Oc3ccccc3)cc12 [FG-4592] (1000 nM) — higher, 102%
- CC[C@H](CO)Nc1nc(NCc2ccccc2)c2ncn(C(C)C)c2n1 [Seliciclib] (1000 nM) — higher, 95.8%
- C=CCN(/C=C1/C(=O)O[C@H](COC)[C@@]2(C)C1=C(O)C(=O)C1=C2[C@H](OC(C)=O)C[C@]2(C)C(=O)CC[C@@H]12)CC=C [Sonolisib] (1 nM) — higher, 103%
- C=CCN(/C=C1/C(=O)O[C@H](COC)[C@@]2(C)C1=C(O)C(=O)C1=C2[C@H](OC(C)=O)C[C@]2(C)C(=O)CC[C@@H]12)CC=C [Sonolisib] (10 nM) — higher, 102%
- C=CCN(/C=C1/C(=O)O[C@H](COC)[C@@]2(C)C1=C(O)C(=O)C1=C2[C@H](OC(C)=O)C[C@]2(C)C(=O)CC[C@@H]12)CC=C [Sonolisib] (1000 nM) — higher, 97.4%
- O=[N+]([O-])c1ccc2c(c1)S(=O)(=O)C=C2 [Stattic] (5 nM) — higher, 105%
- CC(C)n1cnc2c(NCCc3ccc(O)cc3)nc(-c3csc4ccccc34)nc21 [StemRegenin 1] (1 nM) — higher, 96.7%
- CC(C)n1cnc2c(NCCc3ccc(O)cc3)nc(-c3csc4ccccc34)nc21 [StemRegenin 1] (10 nM) — higher, 92.2%

test system: Hs578T; assay: as above; conditions: incubation time: 72 h
Method in brief: as §1

Point of comparison: `CN[C@@H](C)C(=O)N[C@H]1CN(C(=O)CC(C)C)CC[C@H]2CC[C@@H](C(=O)NC(c3ccccc3)c3ccccc3)N2C1=O` [AT-406] (1000 nM), normalised response 95.7%. Against it:
- CC1(COc2ccc3c(c2)ncn3-c2ccc3cccc(N4CCC(N)CC4)c3n2)COC1 [Crenolanib] (1000 nM) — higher, 96.4%
- CC(C)(C)c1nc(-c2cccc(NS(=O)(=O)c3c(F)cccc3F)c2F)c(-c2ccnc(N)n2)s1 [Dabrafenib] (250 nM) — lower, 90.8%
- Cc1nc(C(=O)NCC(=O)O)c(O)c2ccc(Oc3ccccc3)cc12 [FG-4592] (1000 nM) — higher, 109%
- CC[C@H](CO)Nc1nc(NCc2ccccc2)c2ncn(C(C)C)c2n1 [Seliciclib] (1000 nM) — higher, 109%
- C=CCN(/C=C1/C(=O)O[C@H](COC)[C@@]2(C)C1=C(O)C(=O)C1=C2[C@H](OC(C)=O)C[C@]2(C)C(=O)CC[C@@H]12)CC=C [Sonolisib] (1 nM) — higher, 105%
- C=CCN(/C=C1/C(=O)O[C@H](COC)[C@@]2(C)C1=C(O)C(=O)C1=C2[C@H](OC(C)=O)C[C@]2(C)C(=O)CC[C@@H]12)CC=C [Sonolisib] (10 nM) — higher, 97.9%
- C=CCN(/C=C1/C(=O)O[C@H](COC)[C@@]2(C)C1=C(O)C(=O)C1=C2[C@H](OC(C)=O)C[C@]2(C)C(=O)CC[C@@H]12)CC=C [Sonolisib] (1000 nM) — higher, 99.2%
- O=[N+]([O-])c1ccc2c(c1)S(=O)(=O)C=C2 [Stattic] (5 nM) — higher, 104%
- CC(C)n1cnc2c(NCCc3ccc(O)cc3)nc(-c3csc4ccccc34)nc21 [StemRegenin 1] (1 nM) — higher, 104%
- CC(C)n1cnc2c(NCCc3ccc(O)cc3)nc(-c3csc4ccccc34)nc21 [StemRegenin 1] (10 nM) — higher, 109%

test system: MFM-223; assay: as above; conditions: incubation time: 72 h
Method in brief: as §1

Point of comparison: `O=[N+]([O-])c1ccc2c(c1)S(=O)(=O)C=C2` [Stattic] (5 nM), normalised response 101%. Against it:
- CN[C@@H](C)C(=O)N[C@H]1CN(C(=O)CC(C)C)CC[C@H]2CC[C@@H](C(=O)NC(c3ccccc3)c3ccccc3)N2C1=O [AT-406] (1000 nM) — the same, 101%
- CC1(COc2ccc3c(c2)ncn3-c2ccc3cccc(N4CCC(N)CC4)c3n2)COC1 [Crenolanib] (1000 nM) — higher, 102%
- CC(C)(C)c1nc(-c2cccc(NS(=O)(=O)c3c(F)cccc3F)c2F)c(-c2ccnc(N)n2)s1 [Dabrafenib] (250 nM) — higher, 107%
- Cc1nc(C(=O)NCC(=O)O)c(O)c2ccc(Oc3ccccc3)cc12 [FG-4592] (1000 nM) — higher, 102%
- CC[C@H](CO)Nc1nc(NCc2ccccc2)c2ncn(C(C)C)c2n1 [Seliciclib] (1000 nM) — higher, 109%
- C=CCN(/C=C1/C(=O)O[C@H](COC)[C@@]2(C)C1=C(O)C(=O)C1=C2[C@H](OC(C)=O)C[C@]2(C)C(=O)CC[C@@H]12)CC=C [Sonolisib] (1 nM) — higher, 107%
- C=CCN(/C=C1/C(=O)O[C@H](COC)[C@@]2(C)C1=C(O)C(=O)C1=C2[C@H](OC(C)=O)C[C@]2(C)C(=O)CC[C@@H]12)CC=C [Sonolisib] (10 nM) — higher, 109%
- C=CCN(/C=C1/C(=O)O[C@H](COC)[C@@]2(C)C1=C(O)C(=O)C1=C2[C@H](OC(C)=O)C[C@]2(C)C(=O)CC[C@@H]12)CC=C [Sonolisib] (1000 nM) — higher, 107%
- CC(C)n1cnc2c(NCCc3ccc(O)cc3)nc(-c3csc4ccccc34)nc21 [StemRegenin 1] (1 nM) — higher, 103%
- CC(C)n1cnc2c(NCCc3ccc(O)cc3)nc(-c3csc4ccccc34)nc21 [StemRegenin 1] (10 nM) — higher, 102%

test system: BT-474; assay: as above; conditions: incubation time: 72 h
Method in brief: as §1

Point of comparison: `CC[C@H](CO)Nc1nc(NCc2ccccc2)c2ncn(C(C)C)c2n1` [Seliciclib] (1000 nM), normalised response 96.9%. Against it:
- CN[C@@H](C)C(=O)N[C@H]1CN(C(=O)CC(C)C)CC[C@H]2CC[C@@H](C(=O)NC(c3ccccc3)c3ccccc3)N2C1=O [AT-406] (1000 nM) — lower, 24.8%
- CC1(COc2ccc3c(c2)ncn3-c2ccc3cccc(N4CCC(N)CC4)c3n2)COC1 [Crenolanib] (1000 nM) — higher, 111%
- CC(C)(C)c1nc(-c2cccc(NS(=O)(=O)c3c(F)cccc3F)c2F)c(-c2ccnc(N)n2)s1 [Dabrafenib] (250 nM) — higher, 97.9%
- Cc1nc(C(=O)NCC(=O)O)c(O)c2ccc(Oc3ccccc3)cc12 [FG-4592] (1000 nM) — higher, 106%
